Article PMC4683533, “Discovery of novel INK4C small-molecule inhibitors to promote human and murine hematopoietic stem cell ex vivo expansion” (Scientific Reports, 2015)
Entries after “also recorded” stand apart in the source; their conditions may differ.

Key:
[1] = tested on: c-Kit enriched BM cells (primary hematopoietic cells); test: apoptosis analysis by Annexin V staining; assay type: cell-based; settings: effective concentration (20 μM), 5 days, compared with negative control group
Procedure: (§1) First, a cell-proliferation assay was performed on the immortalized myeloblast-like cell line 32D cells to evaluate general cytotoxicity. […] We also evaluated cytotoxicity using primary hematopoietic cells.
Figure 6 Cytotoxicity assessment of top p18SMI compounds. (A) Cell proliferation assay was performed on 32D cells to evaluate general cytotoxicity. The cell survival was determined by the MTT assay. (B) Apoptosis statistics analysis of cultured c-Kit enriched BM cells which were cultured with cytokine plus 20 μM compound 40 or DMSO. Uncultured bone marrow cells were irradiated by UV to serve as positive control. Apoptosis was checked by Annexin V staining on hematopoietic cells. (C,D) Proliferation effect of compound 40 on leukemia cell lines KG-1 and KG-1a. The cell survival was determined with the MTT assay. Data is mean ± SEM for all experiments of two or more and were performed in duplicate or triplicate.
c-Kit enriched BM cells were cultured for 5 days with cytokine combination plus compound 40 or DMSO. […] Apoptosis and cell death were measured by AnnexinV and DAPI staining according to the manufacturer’s instructions in the Annexin V-FITC Apoptosis Detection Kit (BD Biosciences). Apoptosis was measured on an FACS analyzer (LSR Fortessa, BD Biosciences). The data was analyzed using FlowJo software (Treestar, Inc.).

[2] = tested on: LT-repopulating HSCs (CD34-LKS cells); test: competitive bone marrow transplantation (cBMT) assay; assay type: in vivo, mouse
Procedure: Figure 3 Treatment of c-Kit-enriched murine BM cells with p18SMI compounds enhances HSC expansion. (A) The average number of total cells, HSPCs (Lin^−Sca1^+) and long term (LT)-HSCs (Lin^-Sca1^+CD48^−CD150^+) were analyzed by flow cytometry. (B) Single CD34^−LKS cell were deposited into each well of a 96-well plate, along with differentiation medium plus different concentrations of p18SMI compounds to show the dose-response effect of p18SMI compounds. (C) CAFC-LDA assay of cells treated with XIE18-6, compound 40 and DMSO to reveal the frequency of primitive HSCs. Above data (A–C) is mean ± SEM for all experiments of two or more and were performed in duplicate or triplicate. (D) Experimental design for transplantation (n = 10). CD34^-LKS cells were sorted into 96-well plates at 50 cells/well and cultured for 3 days with cytokine plus 20 μM of compounds or DMSO. Cells from each well were mixed with 2 × 10^6 freshly isolated bone marrow MNCs and co-transplanted by tail-vein injection into lethally irradiated CD45.2 recipient mice. 16 weeks after transplantation, bone marrow MNCs were stained to determine the engraftment level of donor cells. Bone marrow MNCs were also stained for lineage analysis. Multi-lineage differentiation was examined by flow cytometry. GM, T and B indicate lineages for myeloid, T and B cells, respectively. (E,F) The engraftment levels at 16 weeks after primary transplantation, and multi-lineage differentiation profile. Data is mean ± SEM for all experiments (***p < 0.001, **p < 0.01). TEXT PRINTED IN THE PICTURE: (E) #40: Engrafment%: *** 5.93X | (E) XIE18-6: Engrafment%: ** 3.01X DOUBTS OF THE COPYIST ABOUT THIS PICTURE: Panel E: 5.93X and 3.01X are printed on brackets running from #40 and from XIE18-6 to DMSO. No measure is printed beside them, so the axis label 'Engrafment%' was used as the measure.
The increased frequency and total number of functional LT-HSCs after treatment with p18SMI compounds was further confirmed by competitive bone marrow transplantation (cBMT) assay (Fig. 3D). CD34^-LKS cells were first sorted and cultured w/o p18SMI compound for 3 days. Then the cultured cells were gathered and co-transplanted into lethally irradiated mice with competitor cells. […] Moreover, the engraftment of the group treated with compound 40 was double of that of the group treated with XIE18–6.

RPMI 8226 = test: MTT proliferation assay on myeloma cell line; assay type: cell-based
Excerpt: (§2) With confirmation of compound 40 promoting the expansion of HSCs, we further examined whether it might also increase the risk of malignant diseases. In order to determine the effect of compound 40 on hematological tumorigenesis, proliferation of both leukemia cell lines (KG-1 and KG-1a) and myeloma cell lines (MM.1S and RPMI 8226) was further investigated by a standard MTT assay.
(§3) To evaluate the toxicity of our top compounds, we performed a cell proliferation assay using 32D cells as well as leukemia cell lines and myeloma cell lines. Weihi-3 cells were cultured at 37 °C under 5% CO2 in RPMI 1640 medium supplemented with 10%FBS. After 48 h, the supernatant was collected and filtered. 32D cells were cultured in RPMI 1640 with 10% FBS and 10% supernatant collected from Weihi-3 cells. 8,000 32D cells or leukemia cell line (KG-1 or KG-1a) or myeloma cell line (MM.1S or RPMI 8226) were plated in a 96-well plate in 198 μL culture media per well, and then cultured (37 °C, 5% CO2) overnight. 2 μL of serially diluted compounds dissolved in saline or DMSO were added to each well and incubated (37 °C, 5% CO2) for 72 h. The concentration of DMSO was equal to the one in corresponding compound group. 20 μL of MTT solution was added to each well and then incubated (37 °C, 5% CO2) for 4 h. The percentage of cell survival was determined using the MTT assay, as previously described. The data was analyzed using GraphPad Prism v6.0.
(§4) (1 picture or pasted object on this page, not shown here)

MM.1S = test: MTT proliferation assay on myeloma cell line; assay type: cell-based
Excerpt: as §2, §3, §4

32D cells = test: MTT cell proliferation assay, general cytotoxicity; assay type: cell-based
Procedure: as §1, §3

KG-1a = test: MTT proliferation assay on leukemia cell line; assay type: cell-based
Excerpt: as §2, §3

KG-1 = test: MTT proliferation assay on leukemia cell line; assay type: cell-based
Excerpt: as §2, §3

## O=C([O-])c1ccc(S(=O)(=O)NC2CCCCC2)cc1.[Na+] [Compound 40, sodium 4-(N-cyclohexylsulfamoyl)benzoate]
[1]
  cytotoxicity / apoptotic cell death in primary hematopoietic cells (HSCs): did not show significant cytotoxicity; also recorded: did not increase apoptotic cell death; also recorded: not cytotoxic
[2]; 16 weeks after transplantation
  engraftment relative to the group treated with XIE18–6: double
  multi-lineage differentiation profile (GM, T, B) compared with the control group: did not cause predominant growth of any specific lineages
[2]; CD34-LKS cells cultured 3 days with 20 μM compound, co-transplanted with competitor cells into lethally irradiated mice, bone marrow 16 weeks after transplantation
  increase in engraftment compared with the DMSO control group: 5.93 fold
[2]; cells cultured 3 days with 20 μM compound, 16 weeks after transplantation
  increase in engraftment compared with the uncultured group: 4.34 fold
RPMI 8226; 5 μM
  enhancement of proliferation (MTT): did not enhance
RPMI 8226; high concentration (20 μM)
  effect on myeloma cell line: no effect
MM.1S; 5 μM
  enhancement of proliferation (MTT): did not enhance
MM.1S; high concentration (20 μM)
  effect on myeloma cell line: no effect
32D cells
  cytotoxicity toward 32D cells: did not show significant cytotoxicity; also recorded: not cytotoxic
32D cells; 25 μM
  cytotoxic effects (cell viability, MTT): did not show any cytotoxic effects
32D cells; 50 μM, thought to be due to cytotoxicity of the solvent DMSO
  cell viability (MTT): only slight decreases in cell viability
KG-1a; any concentration
  enhancement of proliferation (MTT): did not enhance; also recorded: no activity
KG-1a; high concentration (20 μM)
  effect on leukemia cell line: no effect
KG-1; any concentration
  enhancement of proliferation (MTT): did not enhance; also recorded: no activity
KG-1; high concentration (20 μM)
  effect on leukemia cell line: no effect
